The values below come from patent US7060686B2, “Anti-inflammatory compounds derived from Pseudopterogorgia elisabethae” (The Regents of the University of California, priority 2000, dated 2006).

For experiment [1], the system named is phorbol 12-myristate 13-acetate (PMA) induced ear edema. Put plainly: Mouse ear anti-inflammatory assay. It counts as in vivo. The note with it: for inhibition in vivo at 25 µg/ear: Mus musculus, 200 min; for inhibition in vivo at 25 µg/ear / Edema (mg ± sem) / % Inhibition: topical, 200 minutes; for inhibition in vivo at 25 µg/ear / % Inhibition: 25 μg/ear with PMA, decrease in edema relative to PMA control group; for Relative Potency, Pseudopterosin A: potency estimate relative to Pseudopterosin A (historical ED50 15 μg/ear); for Relative Potency, Pseudopterosin E: potency estimate relative to Pseudopterosin E (historical ED50 40 μg/ear); for Edema (mg ± sem): 25 μg/ear test compound with 2 μg/ear PMA, left minus right ear bore weight, N=5. How it is done:
A. Mouse Ear Anti-Inflammatory Assay Each compound was topically applied in acetone to the inside pinnae of the ear of a mouse in a solution containing the edema-causing irritant, phorbol 12-myristate 13-acetate (PMA). 2 μg per ear of PMA alone or 25 μg per ear of test compound in combination with PMA was applied to the left ear of each mouse and acetone (control) was applied to each right ear of each mouse. There were 5 mice per treatment group. After incubating 200 minutes, the mice were sacrificed, the ears were removed, and bores were taken and weighed. Edema (inflammation) was measured by subtracting the weight of the right ear from the weight of the left ear. Results were recorded as % decrease (inhibition) or % increase (potentiation) in edema relative to the PMA control group edema.

For experiment [2] the test system is unchanged. The settings on record: Jacobs' historical standards; cited from earlier work.

In general, inhibition in vivo refers to how much of the control response was suppressed. As to `CC(=O)OC1C(Oc2c(C)c3c4c(c2O)[C@@H](C)CC[C@@H]4[C@@H](C)CC3C=C(C)C)OCC(O)C1O` (stereo partly shown) [Compound 1], in experiment [1], the inhibition in vivo at 25 µg/ear turned out to be 68%; the “Relative Potency, Pseudopterosin A” value is 118%; the “Relative Potency, Pseudopterosin E” value is recorded as 324%; the “Edema (mg ± sem)” value is 2.1 ± 0.5 mg.
For the compound `CC(=O)OC1C(O)COC(Oc2c(C)c3c4c(c2O)[C@@H](C)CC[C@@H]4[C@@H](C)CC3C=C(C)C)C1O` (stereo partly shown) [Compound 2], in experiment [1], the inhibition in vivo at 25 µg/ear worked out at 88%, the “Edema (mg ± sem)” value is on record as 0.8 ± 0.2 mg and the “% Inhibition” value is given as “highest percent inhibition”.
For `CC(=O)OC1COC(Oc2c(C)c3c4c(c2O)[C@@H](C)CC[C@@H]4[C@@H](C)CC3C=C(C)C)C(O)C1O` (stereo partly shown) [Compound 3], in experiment [1], the inhibition in vivo at 25 µg/ear turned out to be 69%; the “Relative Potency, Pseudopterosin A” value is on record as 123%; the “Relative Potency, Pseudopterosin E” value was 337%; the “Edema (mg ± sem)” value is given as 0.9 ± 0.2 mg.
Regarding `CC(=O)OC1C(Oc2c(C)cc3c(c2O)[C@@H](C)CC[C@@H]3[C@@H](C)CCC=C(C)C)OC(C)C(O)C1O` (stereo partly shown) [Compound 4], in experiment [1], the inhibition in vivo at 25 µg/ear worked out at 88%, the “Edema (mg ± sem)” value is listed as 0.8 ± 0.2 mg and the “% Inhibition” value is reported as “highest percent inhibition”.
For `CC(=O)OC1C(O)C(C)OC(Oc2c(C)cc3c(c2O)[C@@H](C)CC[C@@H]3[C@@H](C)CCC=C(C)C)C1O` (stereo partly shown) [Compound 5], in experiment [1], the inhibition in vivo at 25 µg/ear was 65%; the “Relative Potency, Pseudopterosin A” value is 103%; the “Relative Potency, Pseudopterosin E” value is given as 288%; the “Edema (mg ± sem)” value is given as 2.4 ± 0.6 mg.
As for `CC(=O)OC1C(C)OC(Oc2c(C)cc3c(c2O)[C@@H](C)CC[C@@H]3[C@@H](C)CCC=C(C)C)C(O)C1O` (stereo partly shown) [Compound 6], in experiment [1], the inhibition in vivo at 25 µg/ear worked out at 74%; the “Relative Potency, Pseudopterosin A” value is on record as 148%; the “Relative Potency, Pseudopterosin E” value was 410%; the “Edema (mg ± sem)” value stood at 1.8 ± 0.3 mg.
Turning to `CC(C)=CCC[C@H](C)[C@H]1CC[C@H](C)C2=C1C(=O)C(C)=C(O)C2=O` [Compound 7, elisabethadione], in experiment [1], the inhibition in vivo at 25 µg/ear came to 83% and the “Edema (mg ± sem)” value stood at 1.2 ± 0.1 mg.
In the case of `CC(C)=C[C@H]1C[C@H](C)[C@H]2CC[C@H](C)C3=C2C1(O)C(C)=C(O)C3=O` (stereo partly shown) [Compound 8, elisabethadiol], in experiment [1], the inhibition in vivo at 25 µg/ear stood at 9% and the “Edema (mg ± sem)” value was found to be 6.2 ± 0.6 mg.
For `CC(C)=C[C@H]1C[C@H](C)[C@H]2CC[C@H](C)c3c(O[C@@H]4OC[C@@H](O)[C@H](O)[C@H]4O)c(O)c(C)c1c32` [Pseudopterosin A], the ED50 in experiment [2] is listed as 15 μg/ear.
As for `CC(C)=C[C@H]1C[C@H](C)[C@H]2CC[C@H](C)c3c(O)c(O[C@@H]4O[C@@H](C)[C@@H](O)[C@@H](O)[C@@H]4O)c(C)c1c32` [Pseudopterosin E], the ED50 in experiment [2] was 40 μg/ear.
